# Test results taken from patent US20070122400A1, “Composition having liver function protecting effect” (priority 2003, published 2007).
# Key:
# [1] = rats, daily dosage of 1,200 mg/kg continuously for 52 weeks; cited from earlier work
# [2] = tested on: liver dysfunction model using carbon tetrachloride; test: liver dysfunction model using carbon tetrachloride, plasma GPT activity; assay type: in vivo, male SD rats; details: rats; for GPT activity in the plasma sample, relative to the control group: 100 mg/kg oral in soy oil about 17 h before 50% carbon tetrachloride 2.0 ml/kg i.p., plasma 24 hours after carbon tetrachloride, n=4; for GPT activity in the plasma, rank among the groups: 100 mg/kg oral, 24 hours after carbon tetrachloride, same tendency at 48 hours and 72 hours, control group highest
# Protocol: The effects of coenzyme Q10 on protecting liver functions from disorders and preventing liver dysfunctions were examined by establishing a liver dysfunction model using carbon tetrachloride. A soy oil solution of oxidized coenzyme Q10 or reduced coenzyme Q10 with approximately 2% of oxidized coenzyme Q10 was orally administered to male SD rats (6 weeks old) at a dosage of 100 mg/kg. About 16 hours after the administration, blood was collected from the jugular vein using heparin as an anticoagulant. After one hour, 50% carbon tetrachloride (product of Nacalai Tesque, Inc.)/olive oil (product of Wako Pure Chemical Industries, Ltd.) was intraperitoneally administered at a dosage of 2.0 ml/kg. Blood was collected 24 hours, 48 hours, and 72 hours after the administration of carbon tetrachloride. The collected blood samples were centrifuged to obtain plasma samples. The GPT activity of each plasma sample was measured using a kit, Transaminase CII-Test Wako (product of Wako Pure Chemical Industries, Ltd.).
# [3] = tested on: Liver dysfunction induced by carbon tetrachloride; details: rats, intraperitoneal administration; cited from earlier work
Compound,toxic effects in chronic toxicity test [1],"GPT activity in the plasma sample, relative to the control group [2]","GPT activity in the plasma, rank among the groups [2]",liver dysfunction induced by carbon tetrachloride [3]
COC1=C(OC)C(=O)C(C/C=C(\C)CC/C=C(\C)CC/C=C(\C)CC/C=C(\C)CC/C=C(\C)CC/C=C(\C)CC/C=C(\C)CC/C=C(\C)CC/C=C(\C)CCC=C(C)C)=C(C)C1=O [Coenzyme Q10],no toxic effects,–,–,–
COC1=C(OC)C(=O)C(C/C=C(\C)CC/C=C(\C)CC/C=C(\C)CC/C=C(\C)CC/C=C(\C)CC/C=C(\C)CC/C=C(\C)CC/C=C(\C)CC/C=C(\C)CCC=C(C)C)=C(C)C1=O [oxidized coenzyme Q10],–,about 60 % of the control group,the next highest,suppressed
COc1c(O)c(C)c(C/C=C(\C)CC/C=C(\C)CC/C=C(\C)CC/C=C(\C)CC/C=C(\C)CC/C=C(\C)CC/C=C(\C)CC/C=C(\C)CC/C=C(\C)CCC=C(C)C)c(O)c1OC [reduced coenzyme Q10],–,about 25 % of the control group,the lowest,–
